According to the supplement of paper PMC4862054:

Legend:
MDA-MB-468 [1] = experiment: normalised response (% of control), CellTiter-Glo; higher = more viable cells (100 = DMSO, 0 = benzethonium chloride kill control); settings: incubation time: 72 h
Method in brief: (§1)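 Normalised signals at single concentrations make up the values. They come from breast cancer cell lines seeded (20 µl suspension) into 384-well plates with compound at 5 concentrations in 10-fold steps over a compound-specific 10,000-fold range, incubated 72 h, and read for CellTox Green fluorescence then CellTiter-Glo luminescence. Each plate was normalised to 0.1 % DMSO (100) and a positive kill control (0).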

MFM-223 = experiment: as above; settings: incubation time: 72 h
Method in brief: as §1

Hs578T [2] = experiment: as above; settings: incubation time: 72 h
Method in brief: as §1

MDA-MB-436 [3] = experiment: as above; settings: incubation time: 72 h
Method in brief: as §1

CAL-51 [4] = experiment: as above; settings: incubation time: 72 h
Method in brief: as §1

HCC1599 [5] = experiment: as above; settings: incubation time: 72 h
Method in brief: as §1

MDA-MB-453 [6] = experiment: as above; settings: incubation time: 72 h
Method in brief: as §1

CAL-85-1 = settings: 72 h
Method in brief: (§2)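 EC50 was fitted from dose-response curves and censored at the highest concentration tested. To build those curves, breast cancer cell lines (20 µl suspension) were seeded into 384-well plates containing compound at 5 concentrations in 10-fold steps over a compound-specific 10,000-fold range and incubated for 72 h. Readouts were CellTox Green fluorescence (485/520 nm) for cell death and then CellTiter-Glo luminescence for viability, with each plate normalised to 0.1 % DMSO and a positive kill control.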

HCC1937 [7] = settings: 72 h
Method in brief: as §2

HDQ-P1 [8] = settings: 72 h
Method in brief: as §2

HCC1599 [9] = settings: 72 h
Method in brief: as §2

MDA-MB-453 [10] = settings: 72 h
Method in brief: as §2

HCC1937 [11] = settings: 72 h; remark: listed apart in the source
Method in brief: (§3)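 Breast cancer cell lines in 20 µl suspension were seeded onto 384-well plates pre-loaded with compound dissolved in 5 µl medium, then incubated 72 h. For viability, 2.5 µl CellTiter-Blue was added for 2 h at 37 °C and fluorescence read at 560/590 nm. Each plate was normalised to vehicle and a positive kill control and checked by Z'-factor. EC50 comes from the fitted percent-inhibition dose-response curve, censored at the highest concentration; rows with zero drug sensitivity score were dropped.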

SK-BR-3 [12] = settings: 72 h
Method in brief: as §3

Hs578T [13] = settings: 72 h
Protocol: (§4)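 Drug sensitivity and resistance testing (DSRT) of breast cancer cell lines in 384-well plates, 5 concentrations in 10-fold dilutions over a compound-specific 10,000-fold range. After 72 h, cytotoxicity was read by CellTox Green fluorescence and viability by CellTiter-Glo luminescence (multiplexed), normalised to DMSO and benzethonium chloride controls. EC50 is the inflection point of the fitted dose-response curve (bottom asymptote free, so it can be relative for partial curves) and is censored at the highest tested concentration. Rows with DSS 0 (no meaningful response) were excluded.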

MDA-MB-436 [14] = settings: 72 h
Protocol: as §4

MDA-MB-231 [15] = settings: 72 h
Protocol: as §4

BT-474 [16] = settings: 72 h
Protocol: as §4

HCC1599 [17] = settings: 72 h; remark: listed apart in the source
Protocol: as §4

BT-549 [18] = settings: 72 h
Protocol: as §4

CAL-148 [19] = settings: 72 h
Method in brief: as §2

MDA-MB-468 [20] = settings: 72 h
Method in brief: as §3

Hs578T [21] = settings: 72 h; remark: listed apart in the source
Method in brief: as §3

MDA-MB-231 [22] = settings: 72 h; remark: listed apart in the source
Method in brief: as §3

BT-474 [23] = settings: 72 h; remark: listed apart in the source
Method in brief: as §3

CAL-148 [24] = settings: 72 h; remark: listed apart in the source
Protocol: as §4

CAL-51 [25] = settings: 72 h
Protocol: as §4

HCC1143 [26] = settings: 72 h
Protocol: as §4

HDQ-P1 [27] = settings: 72 h; remark: listed apart in the source
Protocol: as §4

Hs578T [28] = experiment: normalised response (% of control), CellTiter-Glo; higher = more viable cells (100 = DMSO, 0 = benzethonium chloride kill control); settings: incubation time: 72 h; remark: listed apart in the source
Method in brief: as §1

HCC1143 [29] = experiment: as above; settings: incubation time: 72 h
Method in brief: as §1

SK-BR-3 [30] = experiment: as above; settings: incubation time: 72 h
Method in brief: as §1

BT-474 [31] = experiment: as above; settings: incubation time: 72 h
Method in brief: as §1

BT-549 [32] = experiment: as above; settings: incubation time: 72 h
Method in brief: as §1

Nc1cccc2c1CN(C1CCC(=O)NC1=O)C2=O (stereo not given) [Lenalidomide] (10000 nM)
normalised response (MDA-MB-468 [1]): 107%
normalised response (MFM-223): 100%
normalised response (Hs578T [2]): 98.1%
normalised response (MDA-MB-436 [3]): 91.3%
normalised response (CAL-51 [4]): 114%
normalised response (HCC1599 [5]): 103%
normalised response (MDA-MB-453 [6]): 102%

C[C@]12O[C@H](C[C@]1(O)CO)n1c3ccccc3c3c4c(c5c6ccccc6n2c5c31)CNC4=O [Lestaurtinib]
EC50, CellTiter-Glo (CAL-85-1): 277 nM
EC50, CellTiter-Glo (HCC1937 [7]): > 1000 nM
EC50, CellTiter-Glo (HDQ-P1 [8]): 233 nM
EC50, CellTiter-Glo (HCC1599 [9]): 238 nM
EC50, CellTiter-Glo (MDA-MB-453 [10]): 3.03 nM
EC50, CellTiter-Blue viability (HCC1937 [11]): 369 nM
EC50, CellTiter-Blue viability (SK-BR-3 [12]): 813 nM
EC50, CellTox Green (Hs578T [13]): 333 nM
EC50, CellTox Green (MDA-MB-436 [14]): 11.9 nM
EC50, CellTox Green (MDA-MB-231 [15]): > 1000 nM
EC50, CellTox Green (BT-474 [16]): 819 nM
EC50, CellTox Green (HCC1599 [17]): 439 nM
EC50, CellTox Green (BT-549 [18]): 1000 nM

C[C@]12O[C@H](C[C@]1(O)CO)n1c3ccccc3c3c4c(c5c6ccccc6n2c5c31)CNC4=O [Lestaurtinib] (1000 nM)
normalised response (MDA-MB-468 [1]): 35.6%
normalised response (MFM-223): 46.4%
normalised response (Hs578T [2]): 61.4%
normalised response (MDA-MB-436 [3]): 44.7%
normalised response (CAL-51 [4]): 91.1%
normalised response (HCC1599 [5]): 24.3%
normalised response (MDA-MB-453 [6]): 79%

O=C1c2c(O)ccc(O)c2C(=O)c2c(NCCNCCO)ccc(NCCNCCO)c21 [Mitoxantrone]
EC50, CellTiter-Glo (CAL-148 [19]): 403 nM
EC50, CellTiter-Blue viability (MDA-MB-468 [20]): 74.8 nM
EC50, CellTiter-Blue viability (Hs578T [21]): 532 nM
EC50, CellTiter-Blue viability (MDA-MB-231 [22]): 51.7 nM
EC50, CellTiter-Blue viability (HCC1937 [11]): 2.13 nM
EC50, CellTiter-Blue viability (SK-BR-3 [12]): 34.5 nM
EC50, CellTiter-Blue viability (BT-474 [23]): 106 nM
EC50, CellTox Green (CAL-148 [24]): 124 nM
EC50, CellTox Green (CAL-51 [25]): 185 nM

O=C1c2c(O)ccc(O)c2C(=O)c2c(NCCNCCO)ccc(NCCNCCO)c21 [Mitoxantrone] (1000 nM)
normalised response (MDA-MB-468 [1]): 59.4%
normalised response (MFM-223): 100%
normalised response (Hs578T [2]): 89.4%
normalised response (MDA-MB-436 [3]): 40.4%
normalised response (CAL-51 [4]): 49%
normalised response (HCC1599 [5]): 85.2%
normalised response (MDA-MB-453 [6]): 129%

Nc1ccccc1NC(=O)c1ccc(CNc2nccc(-c3cccnc3)n2)cc1 [Mocetinostat] (10000 nM)
normalised response (MDA-MB-468 [1]): 5.88%
normalised response (MFM-223): 36.7%
normalised response (Hs578T [2]): 29%
normalised response (MDA-MB-436 [3]): 31.8%
normalised response (CAL-51 [4]): 18.3%
normalised response (HCC1599 [5]): 17.1%
normalised response (MDA-MB-453 [6]): 9.77%

COc1nc(N)nc2c1ncn2[C@@H]1O[C@H](CO)[C@@H](O)[C@@H]1O [Nelarabine]
EC50, CellTox Green (BT-549 [18]): > 10000 nM

COc1nc(N)nc2c1ncn2[C@@H]1O[C@H](CO)[C@@H](O)[C@@H]1O [Nelarabine] (10000 nM)
normalised response (MDA-MB-468 [1]): 87.1%
normalised response (MFM-223): 89.5%
normalised response (Hs578T [2]): 90.5%
normalised response (MDA-MB-436 [3]): 90.1%
normalised response (CAL-51 [4]): 143%
normalised response (HCC1599 [5]): 117%
normalised response (MDA-MB-453 [6]): 81.3%

Cc1ccc(Nc2nccc(N(C)c3ccc4c(C)n(C)nc4c3)n2)cc1S(N)(=O)=O [Pazopanib]
EC50, CellTox Green (HCC1143 [26]): > 10000 nM

Cc1ccc(Nc2nccc(N(C)c3ccc4c(C)n(C)nc4c3)n2)cc1S(N)(=O)=O [Pazopanib] (10000 nM)
normalised response (MDA-MB-468 [1]): 83.3%
normalised response (MFM-223): 55.8%
normalised response (Hs578T [2]): 88.5%
normalised response (MDA-MB-436 [3]): 106%
normalised response (CAL-51 [4]): 67.5%
normalised response (HCC1599 [5]): 94.9%
normalised response (MDA-MB-453 [6]): 91.8%

O=C(CCBr)N1CCN(C(=O)CCBr)CC1 [Pipobroman] (10000 nM)
normalised response (MDA-MB-468 [1]): 100%
normalised response (MFM-223): 103%
normalised response (Hs578T [2]): 103%
normalised response (MDA-MB-436 [3]): 95%
normalised response (CAL-51 [4]): 86.5%
normalised response (HCC1599 [5]): 99%
normalised response (MDA-MB-453 [6]): 110%

C[C@]12C=CC(=O)C=C1CC[C@@H]1[C@@H]2[C@@H](O)C[C@@]2(C)[C@H]1CC[C@]2(O)C(=O)CO [Prednisolone]
EC50, CellTox Green (HDQ-P1 [27]): 7320 nM

C[C@]12C=CC(=O)C=C1CC[C@@H]1[C@@H]2[C@@H](O)C[C@@]2(C)[C@H]1CC[C@]2(O)C(=O)CO [Prednisolone] (10000 nM)
normalised response (MDA-MB-468 [1]): 113%
normalised response (MFM-223): 101%
normalised response (Hs578T [2]): 109%
normalised response (MDA-MB-436 [3]): 104%
normalised response (CAL-51 [4]): 88.8%
normalised response (HCC1599 [5]): 102%
normalised response (MDA-MB-453 [6]): 94.9%

CNC(=O)c1cc(Oc2ccc(NC(=O)Nc3ccc(Cl)c(C(F)(F)F)c3)cc2)ccn1 [Sorafenib] (1000 nM)
normalised response (MDA-MB-468 [1]): 112%
normalised response (MFM-223): 78.6%
normalised response (Hs578T [2]): 96%
normalised response (MDA-MB-436 [3]): 120%
normalised response (CAL-51 [4]): 146%
normalised response (HCC1599 [5]): 94.1%
normalised response (MDA-MB-453 [6]): 92.4%

CCN(CC)CCNC(=O)c1c(C)[nH]c(/C=C2\C(=O)Nc3ccc(F)cc32)c1C [Sunitinib] (1000 nM)
normalised response (MDA-MB-468 [1]): 107%
normalised response (MFM-223): 81.8%
normalised response (Hs578T [2]): 97.5%
normalised response (MDA-MB-436 [3]): 93.7%
normalised response (CAL-51 [4]): 109%
normalised response (HCC1599 [5]): 105%
normalised response (MDA-MB-453 [6]): 97.3%

CC[C@@]1(O)C(=O)OCc2c1cc1n(c2=O)Cc2cc3c(CN(C)C)c(O)ccc3nc2-1 [Topotecan] (100 nM)
normalised response (Hs578T [28]): 101%
normalised response (HCC1143 [29]): 92.9%
normalised response (SK-BR-3 [30]): 66.3%
normalised response (BT-474 [31]): 91.9%
normalised response (BT-549 [32]): 84.2%
